Test results taken from publication PMC7838546, “A Thermostable, Modified Cathelicidin-Derived Peptide With Enhanced Membrane-Active Activity Against Salmonella enterica serovar Typhimurium” (Frontiers in Microbiology, 2021).
Ends that are not written are not given here.

Legend:
[1] = system: Salmonella enterica serovar Typhimurium ATCC 13311; type: cell-based; settings: ATCC 13311, standard strain, triplicate; for MIC: broth microdilution, ~10^7 CFU/ml, 37°C, 24 h
Experimental: (§1) Salmonella enterica serovar Typhimurium ATCC 13311, 24 drug-resistant foodborne and eleven drug-resistant human borne S. enterica serovar Typhimurium and 4,5,12:i:- isolates (Table 1) were used as test microorganisms. They were previously isolated for molecular characterization in 2014 and kindly provided by Dr. Soraya Chaturongakul (Mahidol University, Thailand) ([Huoy et al., 2014]). All bacteria were cultured in Tryptic Soy Broth (TSB) and incubated at 37°C for 18 h. Mueller Hinton Broth (MHB) was then used to wash and rinse the bacteria. The bacterial suspensions were then diluted to obtain concentrations of 10^7 CFU/ml for inoculations.
(§2) A modified version of the National Committee for Clinical Laboratory Standards (NCCLS) broth microdilution method ([Steinberg et al., 1997]) was used to determine the minimum inhibitory concentrations (MICs) of peptide and compared to that of nisin. Fifty microliters of two-fold serial dilutions of each peptide [0.98–250 μg/ml in 0.01% (v/v) acetic acid and 0.2% (w/v) bovine serum albumin (BSA, Sigma-Aldrich, MO, United States)], were incubated with 50 μl of bacterial suspensions (approximately 10^7 CFU/ml) at 37°C for 24 h in a shaking incubator. MICs were taken as the lowest concentration of peptide at which growth was inhibited as observed by visual inspection. Bacterial cultures without peptides and uncultured broth were used as positive and negative controls, respectively. Minimal bactericidal concentrations (MBCs) were determined using a colony count assay ([Clinical Laboratory Standards Institute [CLSI], 2015]). Fifty microliters of samples from each non-turbid well in the MIC determination experiment was plated on Mueller Hinton Agar (MHA) and colonies were observed after overnight incubation at 37°C. MBCs were designated as the least concentration showing no colony growth on the plate. All of experiments were performed in triplicate.

[2] = system: human red blood cells (hRBCs); settings: highest concentration tested 250 μg/ml, ref Klubthawee et al., 2020; cited from earlier work
Text: Recently, a 12-mer α-helical, cationic AMP (‘P7’) was designed based on the cathelicidin family using a template-modified strategy, and subsequently modified by truncation and amino acid substitution ([Klubthawee et al., 2020]). […] Furthermore, P7 sho ...

[3] = system: S. enterica serovar 4,5,12:i:- H1-025 (clinical isolate); assay: MIC/MBC, broth microdilution and colony count; type: cell-based, Salmonella enterica serovar 4,5,12:i:-; settings: H1-025, urine, resistant Amp, Ctx, C, T, intermediate Cp, NA, SxT, broth microdilution, 37°C, 24 h
Experimental: as §1, §2

[4] = system: S. enterica serovar 4,5,12:i:- H1-027 (clinical isolate); assay: MIC/MBC, broth microdilution and colony count; type: cell-based, Salmonella enterica serovar 4,5,12:i:-; settings: H1-027, stool, resistant Amp, T, broth microdilution, 37°C, 24 h
Experimental: as §1, §2

[5] = system: S. enterica serovar 4,5,12:i:- H2-046 (foodborne isolate); assay: MIC/MBC, broth microdilution and colony count; type: cell-based, Salmonella enterica serovar 4,5,12:i:-; settings: H2-046, pork heart, resistant Amp, T, intermediate Cp, broth microdilution, 37°C, 24 h
Experimental: as §1, §2

[6] = system: S. enterica serovar 4,5,12:i:- H2-047 (foodborne isolate); assay: MIC/MBC, broth microdilution and colony count; type: cell-based, Salmonella enterica serovar 4,5,12:i:-; settings: H2-047, pork liver, resistant Amp, intermediate Cp, broth microdilution, 37°C, 24 h
Experimental: as §1, §2

[7] = system: S. enterica serovar 4,5,12:i:- H2-050 (foodborne isolate); assay: MIC/MBC, broth microdilution and colony count; type: cell-based, Salmonella enterica serovar 4,5,12:i:-; settings: H2-050, pork heart, resistant Amp, broth microdilution, 37°C, 24 h
Experimental: as §1, §2

[8] = system: S. enterica serovar 4,5,12:i:- H2-055 (foodborne isolate); assay: MIC/MBC, broth microdilution and colony count; type: cell-based, Salmonella enterica serovar 4,5,12:i:-; settings: H2-055, pork liver, resistant Amp, T, broth microdilution, 37°C, 24 h
Experimental: as §1, §2

[9] = system: S. enterica serovar 4,5,12:i:- H2-062 (foodborne isolate); assay: MIC/MBC, broth microdilution and colony count; type: cell-based, Salmonella enterica serovar 4,5,12:i:-; settings: H2-062, pork intestine, resistant Amp, T, intermediate Cp, broth microdilution, 37°C, 24 h
Experimental: as §1, §2

[10] = system: S. enterica serovar 4,5,12:i:- H2-065 (foodborne isolate); assay: MIC/MBC, broth microdilution and colony count; type: cell-based, Salmonella enterica serovar 4,5,12:i:-; settings: H2-065, pork liver, resistant Amp, T, broth microdilution, 37°C, 24 h
Experimental: as §1, §2

[11] = system: S. enterica serovar 4,5,12:i:- H2-067 (foodborne isolate); assay: MIC/MBC, broth microdilution and colony count; type: cell-based, Salmonella enterica serovar 4,5,12:i:-; settings: H2-067, pork kidney, resistant Amp, T, broth microdilution, 37°C, 24 h
Experimental: as §1, §2

[12] = system: S. enterica serovar 4,5,12:i:- H2-071 (foodborne isolate); assay: MIC/MBC, broth microdilution and colony count; type: cell-based, Salmonella enterica serovar 4,5,12:i:-; settings: H2-071, pork heart, resistant Amp, Ctx, C, T, SxT, intermediate Cp, broth microdilution, 37°C, 24 h
Experimental: as §1, §2

[13] = system: S. enterica serovar 4,5,12:i:- H2-072 (foodborne isolate); assay: MIC/MBC, broth microdilution and colony count; type: cell-based, Salmonella enterica serovar 4,5,12:i:-; settings: H2-072, pork intestine, resistant Amp, Ctx, C, T, SxT, intermediate Cp, broth microdilution, 37°C, 24 h
Experimental: as §1, §2

[14] = system: S. enterica serovar 4,5,12:i:- H2-082 (foodborne isolate); assay: MIC/MBC, broth microdilution and colony count; type: cell-based, Salmonella enterica serovar 4,5,12:i:-; settings: H2-082, pork intestine, resistant Amp, T, broth microdilution, 37°C, 24 h
Experimental: as §1, §2

[15] = system: S. enterica serovar 4,5,12:i:- H2-089 (foodborne isolate); assay: MIC/MBC, broth microdilution and colony count; type: cell-based, Salmonella enterica serovar 4,5,12:i:-; settings: H2-089, pork intestine, resistant Amp, broth microdilution, 37°C, 24 h
Experimental: as §1, §2

[16] = system: S. enterica serovar 4,5,12:i:- H2-090 (foodborne isolate); assay: MIC/MBC, broth microdilution and colony count; type: cell-based, Salmonella enterica serovar 4,5,12:i:-; settings: H2-090, pork intestine, resistant Amp, T, broth microdilution, 37°C, 24 h
Experimental: as §1, §2

| Substance | MIC [1] | MBC ([1]; colony count on MHA) | Hemolysis [2] | MIC [3] | MIC [4] | MIC [5] | MIC [6] | MIC [7] | MIC [8] | MIC [9] | MIC [10] | MIC [11] | MIC [12] | MIC [13] | MIC [14] | MIC [15] | MIC [16] |
| --- | --- | --- | --- | --- | --- | --- | --- | --- | --- | --- | --- | --- | --- | --- | --- | --- | --- |
| KIAKRIWKILRR-NH2 [P7] | 3.91 (3.91) μg/ml | 3.91 (3.91) μg/ml | less than 5% | – | – | – | – | – | – | – | – | – | – | – | – | – | – |
| Nisin: authorized food preservative peptide, binds lipid II and forms membrane pores (ITSISLCTPGCKTGALMGCNMKTATCHCSIHVSK; cysteine pairing not given here; also: lantibiotic nisin-A; UniProt P13068 24-57, looked up) | >1000 µg/mL | – | – | >1000 µg/mL | >1000 µg/mL | >1000 µg/mL | >1000 µg/mL | >1000 µg/mL | >1000 µg/mL | >1000 µg/mL | >1000 µg/mL | >1000 µg/mL | >1000 µg/mL | >1000 µg/mL | >1000 µg/mL | >1000 µg/mL | >1000 µg/mL |
